Measured values: PMC4013053, “Identification of Selective Small Molecule Inhibitors of the Nucleotide-Binding Oligomerization Domain 1 (NOD1) Signaling Pathway” (PLoS ONE, 2014)

How the values were obtained:
[1] = system: NOD1; experiment: Tri-DAP stimulated IL-8 release in HT-29 cells; type: cell-based, human; details: HT-29, 50 µg/mL Tri-DAP 24 hours, same supernatants
Method: (§1) For assay, cells were seeded into 96 well plates (90,000 cells/well) in DMEM containing 1% FBS and pre-incubated with compounds for 1 hour before addition of either 25 µg/mL Tri-DAP or 1 µg/mL MDP. The level of IL-8 released into medium after 24-hour incubation was determined by HTRF assay (Cisbio) as described above and fluorescence measured on an Envision model 2102 multilabel plate reader (Perkin Elmer). The activity of compounds against NOD1-induced type I interferon response was determined by inhibition of Tri-DAP stimulated IP-10 secretion in HT-29 cells, maintained in the same medium as for HCT116 cells. The HT-29 cells were seeded into 96 well plates (60,000 cells/well) in DMEM with 1% FBS, pre-incubated with compounds for 1 hour and stimulated for 24 hours with 50 µg/mL Tri-DAP. The concentration of IL-8 released into the medium was measured by HTRF as above, IP-10 was measured using the IP-10/CXCL10 Quantikine ELISA kit (R&D Systems), and IFNβ was measured using the MA6000 human IFN-β tissue culture kit (Meso Scale Discovery).

[2] = system: NOD1-induced type I interferon response; experiment: Tri-DAP stimulated IP-10 secretion in HT-29 cells; type: cell-based; details: Homo sapiens; HT-29, 50 µg/mL Tri-DAP 24 hours
Method: as §1

[3] = system: NOD1; design: method as in PMID 22870324; details: human lung microvascular endothelial cells, 10 µg/mL iE-DAP; cited from earlier work
[4] = target: T1, NOD1 (Mus musculus, UniProt Q8BHB0); experiment: FK156 acute peritonitis model in mice, serum KC and IP-10; type: in vivo; details: oral administration, intraperitoneal FK156, data not shown
T1 construct: following intraperitoneal injection of FK156 in a model of acute peritonitis; from tissue; host or cells: whole mouse (in vivo)
T1 sequence (Q8BHB0 1-953): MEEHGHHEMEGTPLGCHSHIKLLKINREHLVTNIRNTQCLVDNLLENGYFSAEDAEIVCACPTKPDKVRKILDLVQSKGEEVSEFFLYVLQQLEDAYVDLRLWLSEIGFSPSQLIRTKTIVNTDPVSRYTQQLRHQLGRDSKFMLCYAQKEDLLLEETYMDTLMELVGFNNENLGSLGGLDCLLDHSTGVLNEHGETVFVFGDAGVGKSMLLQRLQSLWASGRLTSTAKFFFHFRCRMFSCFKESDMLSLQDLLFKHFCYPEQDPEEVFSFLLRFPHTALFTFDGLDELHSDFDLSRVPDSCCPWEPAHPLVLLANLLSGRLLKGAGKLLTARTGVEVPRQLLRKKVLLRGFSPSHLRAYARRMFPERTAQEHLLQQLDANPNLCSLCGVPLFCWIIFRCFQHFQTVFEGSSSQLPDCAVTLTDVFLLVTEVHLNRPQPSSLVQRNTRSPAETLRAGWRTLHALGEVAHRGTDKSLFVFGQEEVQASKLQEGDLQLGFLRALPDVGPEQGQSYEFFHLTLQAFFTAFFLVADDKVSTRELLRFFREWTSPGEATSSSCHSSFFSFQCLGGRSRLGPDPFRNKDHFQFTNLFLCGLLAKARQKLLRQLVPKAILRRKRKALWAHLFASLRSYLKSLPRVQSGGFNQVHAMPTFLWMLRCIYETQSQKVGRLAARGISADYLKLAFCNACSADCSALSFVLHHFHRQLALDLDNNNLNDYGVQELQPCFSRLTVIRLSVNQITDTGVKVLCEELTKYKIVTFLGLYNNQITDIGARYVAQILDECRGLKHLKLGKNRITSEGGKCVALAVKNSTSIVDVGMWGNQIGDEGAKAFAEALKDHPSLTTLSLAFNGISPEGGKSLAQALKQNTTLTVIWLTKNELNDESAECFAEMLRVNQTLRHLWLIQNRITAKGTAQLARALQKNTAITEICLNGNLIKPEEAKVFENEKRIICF
Source text: We speculate that the known differences in ligand recognition between human and mouse NOD1 mapped to residues within the leucine-rich repeat domains could underlie the observed differential activity of the compounds on human versus mouse NOD1 signaling.

[5] = system: panel of 300 human kinases; experiment: Kinase activity panel (Reaction Biology Corp); type: biochemical; details: 1 µM compound, 10 µM ATP, 300 kinases
Method: (§2) The compounds were tested in duplicate at 1 µM with a 20-minute pre-incubation with enzyme followed by addition of 10 µM ATP.

[6] = target: T2, CAMK1 (Homo sapiens, UniProt Q14012); experiment: Kinase activity panel: CAMK1; type: biochemical; details: 1 µM compound, 10 µM ATP
T2 construct: purchased Reaction Biology Corp
Method: as §2

[7] = target: T3, EPHB2 (Homo sapiens, UniProt P29323); experiment: Kinase activity panel: EPHB2; type: biochemical; details: 1 µM compound, 10 µM ATP
T3 construct: purchased Reaction Biology Corp
T3 sequence (P29323 19-1055): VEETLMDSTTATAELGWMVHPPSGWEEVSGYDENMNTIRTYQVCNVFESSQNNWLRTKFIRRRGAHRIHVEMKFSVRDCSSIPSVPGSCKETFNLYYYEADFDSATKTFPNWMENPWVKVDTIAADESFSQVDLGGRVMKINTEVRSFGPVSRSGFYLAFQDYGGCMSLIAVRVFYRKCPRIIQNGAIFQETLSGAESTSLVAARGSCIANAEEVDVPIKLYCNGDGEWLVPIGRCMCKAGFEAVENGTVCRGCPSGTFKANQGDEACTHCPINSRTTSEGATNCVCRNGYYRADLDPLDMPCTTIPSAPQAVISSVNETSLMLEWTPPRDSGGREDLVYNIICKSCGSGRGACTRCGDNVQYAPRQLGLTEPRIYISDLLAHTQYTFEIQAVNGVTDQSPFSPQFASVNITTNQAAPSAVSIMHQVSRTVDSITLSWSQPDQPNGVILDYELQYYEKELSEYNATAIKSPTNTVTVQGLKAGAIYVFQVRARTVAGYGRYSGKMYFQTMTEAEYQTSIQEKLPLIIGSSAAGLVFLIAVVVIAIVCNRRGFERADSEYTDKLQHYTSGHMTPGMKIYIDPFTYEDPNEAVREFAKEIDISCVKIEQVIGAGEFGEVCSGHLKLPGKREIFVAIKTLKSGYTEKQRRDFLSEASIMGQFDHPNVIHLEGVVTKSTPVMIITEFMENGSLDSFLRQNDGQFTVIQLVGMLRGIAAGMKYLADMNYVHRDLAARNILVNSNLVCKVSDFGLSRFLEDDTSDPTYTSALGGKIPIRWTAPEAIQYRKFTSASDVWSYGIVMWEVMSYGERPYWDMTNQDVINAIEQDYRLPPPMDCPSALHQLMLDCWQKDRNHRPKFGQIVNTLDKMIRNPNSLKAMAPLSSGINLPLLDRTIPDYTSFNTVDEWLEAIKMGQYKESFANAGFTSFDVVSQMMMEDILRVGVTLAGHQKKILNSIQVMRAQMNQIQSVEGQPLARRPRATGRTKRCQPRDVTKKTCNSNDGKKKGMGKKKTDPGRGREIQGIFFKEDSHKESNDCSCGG
Method: as §2

Question: What does the source list for `Cc1ccc(S(=O)(=O)Nc2cccc(C(=O)Nc3ccc4nc(C)sc4c3)c2)cc1` [Compound 16]?
Answer: IC50 [1]: 40 nM; IC50 [2]: 250 nM

Question: Which “effect on IL-8 secretion, iE-DAP stimulated” value [3] does the source give for `Cc1nc2ccccc2c(=O)n1-c1ccc(Cl)c(NS(=O)(=O)c2ccccc2F)c1` [Compound 22] here?
Answer: Its value is “inhibited IL-8 secretion”.

Question: What about the “effect on serum KC and IP-10 (CXCL10)” value [4] of the same molecule?
Answer: Its value is “failed to reduce serum KC and IP-10 (CXCL10)”.

Question: And the IC50 [1]?
Answer: The IC50 was 30 nM.

Question: What about the IC50 [2] of the same molecule?
Answer: Its IC50 is 80 nM.

Question: Which “inhibition of any kinase in panel” value [5] does the source give for `CCc1ccc(S(=O)(=O)Nc2cc(-n3c(C)nc4ccccc4c3=O)ccc2F)s1` [GSK223] here?
Answer: Its value is no more than 50%.

Question: With `Cc1nc2ccc(NC(=O)c3cccc(NS(=O)(=O)c4ccc(F)cc4)c3)cc2s1` [GSK966] as the molecule, how does the “decrease of CAMK1 activity” value [6] read?
Answer: Its value is 55%.

Question: For `Cn1c(=O)[nH]c(=O)c2c1nc(CCSc1ccccc1)n2Cc1ccccc1` [SB711], which “decrease of EPHB2 activity” value [7] is on record?
Answer: Its value is 51%.
